Measurements reported in EP0526502B1, “PHENOLIC AMINE DEPIGMENTING AND ANTIMELANOMA AGENTS” (The Governors of the University of Alberta, priority 1990, dated 1991).
Values joined by “and” are separate entries in the source; they are usually repeats but may differ in a detail not shown here. Equal entries are not always repeated.

Key:
B16F10 melanoma = assay: Melanoma-colony formation in the lungs; type: in vivo, mice; conditions: 900 mg/kg i.p. daily for 14 days from day five; lungs excised day 26
Method: Murine B16F10 melanoma cell line with a strong metastatic property to form tumour colonies in the lungs was obtained from Dr. Longenecker, Department of Immunology, University of Alberta. Such cell line is well recognized and readily available as reported in Miura et al, supra. The cells were grown in T-75 flasks in dulbecco's MEM available from Gipco Lab Inc., Grand Island, New York, supplemented with 10% fetal calf serum, also obtained from Gipco, penicillin (100 »/ml) and streptomycin (100 »g/ml). The cells were incubated at 37°C in humidified atmosphere of 5% CO₂ in air. The cells were harvested by applying a thin layer of 0.25% trypsin solution in EDTA, washed and resuspended in cold N saline solution. Viable cells were identified by trypan blue dye exclusion and counted. The cell suspension was diluted to the desired concentration. Three groups of mice were studied using a control 4-S-CAP and N-Ac-4-S-CAP as the active agents in the treatment. On day zero, the mice were inoculated via the lateral tail vein with 5 x 10⁴ cells in 0.2 ml of N saline. The test drugs were dissolved in normal saline, sterilized by membrane filtration, and administered in a dose of 300 mg/Kg (4-S-CAP) or 900 mg/Kg (N-Ac-4-S-CAP); starting on day five, the control solution or drug was injected i.p. daily for 14 days. On day 26, the mice were killed by cervical dislocation, their lungs were removed, and the number of melanoma colonies was counted under a dissecting microscope. The results were expressed as percentage reduction in the number of colonies: [a - b/a] x 100, where a = colonies in control group and b = colonies in experimental group.

follicular melanocytes = assay: Depigmentation of new hair after plucking (PTCA/eumelanin content of hair follicles); type: in vivo, C57BL/6J black mice; conditions: for PTCA Content / Depigmentation: 300 mg/kg daily for 14 days, hair harvested day 22; for Depigmentation: 300 mg/kg
Method: Breeding pairs of C57BL/6J black mice were purchased from Jackson Laboratory, Bar Harbor, Maine. Female progeny were used in this testing when approximately 8 weeks old and weighing 17 grams.
Black hairs were plucked manually from the back of the mice to initiate new anagen growth and activate follicular melanocytes with increased tyrosinase activity. Thirty mice were randomized into 6 groups of 5 (1 control and 1 for each compound). Starting on day 1, daily for 14 days the agent was injected i.p. or was infiltrated s.c. in an area where hair follicles had been plucked; the dose was 300 mg/kg body weight.
In the same 30 mice, hair follicles were harvested on day 22 (early telogen phase) and their eumelanin content analyzed. Details of the assay, including chemical degration of melanin and high-performance liquid chromatography (HPLC) were as described in Ito et al, "Quantitative Analysis of Eumelanin and Pheomelanin in Hair and Melanosomes" J. Invest. Dermatol 80:268-272, 1983. Briefly, a 10-mg hair sample is homogenized in water at a concentration of 10 mg/ml; the 200-»l homogenate is transferred to a screw-capped test tube, mixed with 1M H₂SO₄ (800 »L) and oxidized with 3% KMnO₄. The product, pyrrole-2,3,5-tricarboxylic acid (PTCA), is analyzed by HPLC with a UVL detector; samples are measured in duplicate. The eumelanin content is expressed as PTCA (ng/mg) against the PCTA content of BALB/c albino mice as control (≦ 10 ng/mg, the background value with our method, in which 1 ng corresponds roughly to a eumelanin content of 50 ng), and the degree of depigmentation is expressed as a percentage: (PTCA content of control sampleminusPTCA content of experimental sample)/(PCTA content of control sample) x 100 [formula] .

For `CC(=O)NCCSc1ccc(O)cc1` [N-Ac-4-S-CAP, N-ACETYL-4-S-CYSTEAMINYLPHENOL], the “No. of Colonies % control” value (B16F10 melanoma) was 25% and 24.9%, the “No. of Colonies per pair of lungs” value (B16F10 melanoma) was 21.5 ± 10.8 and the “PTCA Content” value (follicular melanocytes; Route s.c.) was 30.8 ± 9.1 ng/mg. The Depigmentation (follicular melanocytes; Route s.c.) was 97.2%, the “PTCA Content” value (follicular melanocytes; Route: i.p.) was 26.0 ± 10.3 ng/mg and the Depigmentation (follicular melanocytes; Route: i.p.) was 97.6%. The “visible pigmentation of new hair” value (follicular melanocytes; i.p. or s.c. route, result in words) was “almost pure white as in albino mice”.
